Key:
Rattus norvegicus = species on record: Rattus norvegicus; experiment: In vitro antiserotonergic activity on rat stomach fundus strip; assay type: functional
[1] = biological target: Serotonin (5-HT) receptor; experiment: Affinity against 5-hydroxytryptamine receptor was determined; assay type: protein assay, Rattus norvegicus

Work on O=C([O-])c1ccc[n+](CCOC(=O)c2cc(Br)c[nH]2)c1 yielded an IC50 (Rattus norvegicus) of 80 µM and a pA2 [1] of 6.2.

Reference: ChEMBL document CHEMBL1159152, “A novel bromopyrrole alkaloid from the sponge Agelas longissima with antiserotonergic activity” (Bioorg Med Chem Lett, 1995)
